pEC50: −log10 of the molar value.
Key:
Human HDAC7 = molecular target: T1, Human HDAC7 (Homo sapiens, UniProt Q8WUI4); test: HDAC7 biochemical assay, class IIa-specific substrate; conditions: read-out: HDAC Isoform IC50 (nM) 7
T1 construct: (a.a. 518-end) with N-terminal GST tag; GST (N); host or cells: baculovirus expression system
T1 sequence (Q8WUI4 518-952 limits assumed): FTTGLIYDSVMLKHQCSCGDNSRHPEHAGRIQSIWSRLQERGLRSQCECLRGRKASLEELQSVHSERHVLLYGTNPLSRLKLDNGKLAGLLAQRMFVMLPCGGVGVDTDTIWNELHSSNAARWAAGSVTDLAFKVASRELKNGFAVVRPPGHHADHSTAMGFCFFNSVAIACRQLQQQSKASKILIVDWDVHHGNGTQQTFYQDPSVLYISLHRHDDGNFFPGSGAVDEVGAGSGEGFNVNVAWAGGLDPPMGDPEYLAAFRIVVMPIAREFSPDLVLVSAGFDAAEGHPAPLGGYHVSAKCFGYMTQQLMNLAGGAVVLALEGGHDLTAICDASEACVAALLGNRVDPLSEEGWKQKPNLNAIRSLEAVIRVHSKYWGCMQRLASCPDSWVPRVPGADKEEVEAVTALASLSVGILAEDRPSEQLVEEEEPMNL
Method in brief: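 GST-tagged HDAC7 (a.a. 518-end, baculovirus-expressed) at 0.001 ng/ul with 50 μM Boc-Lys(trifluoroacetyl)-AMC substrate, 30 min at room temperature in pH 8.0 Tris buffer with BSA, 1% DMSO final. Developer then releases AMC; fluorescence read at 360/460 nm.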

[1] = test system: acetylated α-tubulin in A549 lung adenocarcinoma cells; test: Acetylated α-tubulin in-cell western (ICW) assay; type: cell-based; conditions: Homo sapiens, 16 h exposure, relative to 40 μM scriptaid positive control, read-out: EC50 Ac-α-tubulin, A549 cells
Protocol: (§1) Acetylated α-Tubulin and Histone H3 in-Cell Western (ICW) Assays
(§2) A549 cells were maintained in DMEM (Life Technologies)+10% FBS+2 mM glutamine & penicillin (10 μg/mL) and streptomycin ([…]. 10,000 A549 cells per well were plated into 96 well tissue culture plates (Corning) and incubated at 37° C. overnight in a humidified atmosphere containing 5% CO2 prior to addition of compounds. Compounds (dissolved in 100% DMSO) were diluted into cell culture media at 2× final assay concentration. 2× compound or DMSO (negative control) were added to cells (final DMSO concentration 0.4%). Untreated control wells received media. For acetylated α-tubulin assays, 40 μM scriptaid was used as a positive control. For acetylated histone H3 assays, 40 μM Trichostatin A (TSA) was used as a positive control. Cells were exposed to compound at 37° C. in a humidified atmosphere containing 5% CO2 for 16 h.
(§3) Measurement of the impact of compounds on levels of acetylated α-tubulin and histone H3 was performed using specific antibodies and near-infrared immunofluorescent dyes. Briefly, media was removed from wells of assay plates. Cells were washed once with PBS and fixed in 3.7% formaldehyde PBS solution at room temperature for 20 min. Cells were then permeabilised by washing 5 times in 0.1% triton-X-100 PBS at room temperature with gentle agitation for 5 min per wash. Non-specific antibody staining was blocked by the addition of Odyssey blocking buffer (Li-Cor) for 1.5 h at room temperature with gentle agitation. Cells were then incubated with primary antibody (mouse monoclonal anti-acetylated α-tubulin (clone 6-11B-1), Sigma or rabbit polyclonal anti-acetylated histone H3, Millipore) diluted in Odyssey blocking buffer at 4° C. with gentle shaking overnight (no antibody control and secondary antibody only wells were incubated with Odyssey blocking buffer only). Cells were washed five times with 0.1% tween PBS and labelled with secondary antibody (IR dye 800CW-conjugated goat anti mouse IgG or -goat anti rabbit IgG, Li-Cor) and cell stains Sapphire700 (Li-Cor) and Draq5 (Biostatus) diluted in Odyssey blocking buffer at room temperature in the dark with gentle shaking for 1 h (no antibody control wells were incubated with Odyssey blocking buffer only and secondary antibody only with diluted secondary antibody but no cell stains). Cells were washed with 0.1% Tween PBS five times and scanned using a Li-Cor Odyssey SA plate reader in 700 and 800 nm channels. Acetylated α-tubulin or histone H3 signal was normalised to cell number using the cell stain signal. Percentage increase in acetylated α-tubulin or histone H3 after compound treatment over the mean of DMSO treated controls, relative to scriptaid and TSA positive controls, respectively was calculated. EC50 values were calculated using GraphPad Prism software and nonlinear regression with 0% bottom and 100% top constraints.

Human HDAC9 = molecular target: T2, Human HDAC9 (Homo sapiens, UniProt Q9UKV0); test: HDAC9 biochemical assay, class IIa-specific substrate; conditions: read-out: HDAC Isoform IC50 (nM) 9
T2 construct: amino acids 604-1066 with C-terminal His tag; His (C); host or cells: baculovirus expression system
T2 sequence (Q9UKV0 604-1066 isoform Q9UKV0-5): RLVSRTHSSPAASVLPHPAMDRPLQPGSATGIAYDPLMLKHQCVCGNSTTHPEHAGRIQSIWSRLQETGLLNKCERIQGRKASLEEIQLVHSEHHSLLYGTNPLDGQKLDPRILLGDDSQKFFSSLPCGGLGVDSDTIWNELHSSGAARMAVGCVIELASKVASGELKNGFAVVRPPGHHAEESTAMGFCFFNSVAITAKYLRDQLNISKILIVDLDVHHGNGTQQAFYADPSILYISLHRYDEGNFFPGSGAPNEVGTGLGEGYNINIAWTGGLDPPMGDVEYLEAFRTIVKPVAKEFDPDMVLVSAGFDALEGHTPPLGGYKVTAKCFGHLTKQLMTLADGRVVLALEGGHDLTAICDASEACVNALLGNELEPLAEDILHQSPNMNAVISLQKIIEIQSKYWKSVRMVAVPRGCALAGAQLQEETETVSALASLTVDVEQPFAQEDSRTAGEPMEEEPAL
Method in brief: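 HDAC9 residues 604-1066 (C-terminal His tag, baculovirus-expressed) at 0.06 ng/ul with 50 μM class IIa substrate Boc-Lys(trifluoroacetyl)-AMC in Tris-HCl pH 8.0 buffer with BSA and 1% DMSO. 30 min at room temperature, then developer added; fluorescence read at 360/460 nm Ex/Em.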

[2] = test system: acetylated histone H3 in A549 lung adenocarcinoma cells; test: Acetylated histone H3 in-cell western (ICW) assay; type: cell-based; conditions: Homo sapiens, 16 h exposure, relative to 40 μM Trichostatin A positive control, read-out: EC50 Ac-histone H3, A549 cells
Protocol: as §1, §2, §3

Row | SMILES | IC50 (Human HDAC7) | pEC50 [1] | IC50 (Human HDAC9) | pEC50 [2]
1 | O=C(c1nccnc1N(Cc1ccc(-c2noc(C(F)(F)F)n2)s1)c1cnccn1)N1CCC1 [Example GP, 3-(Azetidine-1-carbonyl)-N-(pyrazin-2-yl)-N-({5-[5-(trifluoromethyl)-1,2,4-oxadiazol-3-yl]thiophen-2-yl}methyl)pyrazin-2-amine] | ≤ 10000 nM | 5.00 to 6.00 | ≤ 10000 nM | ≤ 5.00
2 | O=C(c1cnnc(N(Cc2ccc(-c3noc(C(F)(F)F)n3)s2)c2cnccn2)c1)N1CCS(=O)(=O)CC1 [Example ED, 4-{6-[(Pyrazin-2-yl)({5-[5-(trifluoromethyl)-1,2,4-oxadiazol-3-yl]thiophen-2-yl}methyl)amino]pyridazine-4-carbonyl}-1λ^6-thiomorpholine-1,1-dione] | ≤ 10000 nM | ≥ 6.00 | ≤ 10000 nM | ≤ 5.00
3 | CN1CCN(C(=O)c2cnnc(N(Cc3ccc(-c4noc(C(F)(F)F)n4)s3)c3cnccn3)c2)CC1 [Example EC, 5-(4-Methylpiperazine-1-carbonyl)-N-(pyrazin-2-yl)-N-({5-[5-(trifluoromethyl)-1,2,4-oxadiazol-3-yl]thiophen-2-yl}methyl)pyridazin-3-amine] | ≤ 1000 nM | ≥ 6.00 | ≤ 10000 nM | ≤ 5.00
4 | O=C(c1ccc(N(Cc2ccc(-c3noc(C(F)(F)F)n3)s2)c2cnccn2)nn1)N1CCCCC1 [Example FG, 6-(Piperidine-1-carbonyl)-N-(pyrazin-2-yl)-N-({5-[5-(trifluoromethyl)-1,2,4-oxadiazol-3-yl]thiophen-2-yl}methyl)pyridazin-3-amine] | ≤ 500 nM | ≥ 6.00 | ≤ 1000 nM | ≤ 5.00
5 | O=C(O)c1cnnc(N(Cc2ccc(-c3noc(C(F)(F)F)n3)s2)c2cnccn2)c1 [Example DW, 6-[(Pyrazin-2-yl)({5-[5-(trifluoromethyl)-1,2,4-oxadiazol-3-yl]thiophen-2-yl}methyl)amino]pyridazine-4-carboxylic acid] | ≤ 10000 nM | ≤ 5.00 | ≤ 10000 nM | ≤ 5.00
6 | O=C(c1ccc(N(Cc2ccc(-c3noc(C(F)(F)F)n3)s2)c2cnccn2)nn1)N1CC[S+]([O-])CC1 [Example FD, 4-{6-[(Pyrazin-2-yl)({5-[5-(trifluoromethyl)-1,2,4-oxadiazol-3-yl]thiophen-2-yl}methyl)amino]pyridazine-3-carbonyl}-1lambda4-thiomorpholin-1-one] | ≤ 500 nM | ≥ 6.00 | ≤ 10000 nM | ≤ 5.00
7 | O=C(c1cnnc(N(Cc2ccc(-c3noc(C(F)(F)F)n3)s2)c2cnccn2)c1)N1CCOCC1 [Example EB, 5-(Morpholine-4-carbonyl)-N-(pyrazin-2-yl)-N-({5-[5-(trifluoromethyl)-1,2,4-oxadiazol-3-yl]thiophen-2-yl}methyl)pyridazin-3-amine] | ≤ 1000 nM | ≥ 6.00 | ≤ 10000 nM | ≤ 5.00
8 | FC(F)(F)c1nc(-c2ccc(CN(c3cnccn3)c3cnccn3)s2)no1 [Example BA, N-(Pyrazin-2-yl)-N-({5-[5-(trifluoromethyl)-1,2,4-oxadiazol-3-yl]thiophen-2-yl}methyl)pyrazin-2-amine] | ≤ 1000 nM | ≥ 6.00 | ≤ 10000 nM | ≤ 5.00
9 | FC(F)(F)c1nc(-c2ccc(CN(c3cnccn3)c3cc(CN4CCOCC4)ccn3)s2)no1 [Example GI, N-{4-[(Morpholin-4-yl)methyl]pyridin-2-yl}-N-({5-[5-(trifluoromethyl)-1,2,4-oxadiazol-3-yl]thiophen-2-yl}methyl)pyrazin-2-amine] | ≤ 10000 nM | ≥ 6.00 | ≤ 10000 nM | ≤ 5.00
10 | FC(F)(F)c1cnnc(N(Cc2ccc(-c3noc(C(F)(F)F)n3)s2)c2cnccn2)c1 [Example EF, N-(Pyrazin-2-yl)-5-(trifluoromethyl)-N-({5-[5-(trifluoromethyl)-1,2,4-oxadiazol-3-yl]thiophen-2-yl}methyl)pyridazin-3-amine] | ≤ 10000 nM | 5.00 to 6.00 | ≤ 10000 nM | ≤ 5.00
11 | FC(F)(F)c1nc(-c2ccc(CN(c3cnccn3)c3ccc(CN4CCOCC4)nn3)s2)no1 [Example FN, 6-[(Morpholin-4-yl)methyl]-N-(pyrazin-2-yl)-N-({5-[5-(trifluoromethyl)-1,2,4-oxadiazol-3-yl]thiophen-2-yl}methyl)pyridazin-3-amine] | ≤ 1000 nM | ≥ 6.00 | ≤ 10000 nM | ≤ 5.00
12 | O=C(c1cnnc(N(Cc2ccc(-c3noc(C(F)(F)F)n3)s2)c2cnccn2)c1)N1CC(C(F)F)C1 [Example GK, 5-[3-(Difluoromethyl)azetidine-1-carbonyl]-N-(pyrazin-2-yl)-N-({5-[5-(trifluoromethyl)-1,2,4-oxadiazol-3-yl]thiophen-2-yl}methyl)pyridazin-3-amine] | ≤ 500 nM | ≥ 6.00 | ≤ 10000 nM | ≤ 5.00
13 | COC1CN(C(=O)c2ccc(N(Cc3ccc(-c4noc(C(F)(F)F)n4)s3)c3cnccn3)nn2)C1 [Example DR, 6-(3-Methoxyazetidine-1-carbonyl)-N-(pyrazin-2-yl)-N-({5-[5-(trifluoromethyl)-1,2,4-oxadiazol-3-yl]thiophen-2-yl}methyl)pyridazin-3-amine] | ≤ 500 nM | ≥ 6.00 | ≤ 500 nM | ≤ 5.00
14 | NC(=O)c1ccc(N(Cc2ccc(-c3noc(C(F)(F)F)n3)s2)c2cnccn2)nn1 [Example DQ, 6-[(Pyrazin-2-yl)({5-[5-(trifluoromethyl)-1,2,4-oxadiazol-3-yl]thiophen-2-yl}methyl)amino]pyridazine-3-carboxamide] | ≤ 500 nM | ≥ 6.00 | ≤ 1000 nM | ≤ 5.00
15 | O=C(O)c1cnnc(N(Cc2ccc(-c3noc(C(F)(F)F)n3)s2)c2cc(C(F)(F)F)cnn2)c1 [Example ES, 6-[({5-[5-(Trifluoromethyl)-1,2,4-oxadiazol-3-yl]thiophen-2-yl}methyl)[5-(trifluoromethyl)pyridazin-3-yl]amino]pyridazine-4-carboxylicacid] | ≤ 10000 nM | ≤ 5.00 | > 10000 nM | ≤ 5.00
16 | COc1cncc(N(Cc2ccc(-c3noc(C(F)(F)F)n3)s2)c2cc(C(F)(F)F)cnn2)n1 [Example EN, N-(6-Methoxypyrazin-2-yl)-5-(trifluoromethyl)-N-({5-[5-(trifluoromethyl)-1,2,4-oxadiazol-3-yl]thiophen-2-yl}methyl)pyridazin-3-amine] | ≤ 10000 nM | ≥ 6.00 | > 10000 nM | ≤ 5.00

— patent publication US20210038607A1, “OXADIAZOLYLTHIOPHENE DERIVATIVES USEFUL AS HISTONE DEACETYLASE INHIBITORS” (Karus Therapeutics Limited, priority 2018, published 2021)
